Measurements taken from patent US5824771A, “Cyclic CRF agonists” (The Salk Institute for Biological Studies, priority 1997, dated 1998).
Bridge positions count the residues as written; N and C are the ends. Square brackets hold non-standard residues; d marks the D form. Ends that are not written are not given here. Peptide text beside a SMILES is read from it. Nle = CCCC[C@H](N)C(=O)O

Assays:
[1] = Relief of inflammation on administration; assay type: in vivo; settings: administration of the peptide
[2] = Lowering of blood pressure on peripheral or iv administration; assay type: in vivo; settings: for lowering of blood pressure when administered peripherally, in words: peripheral administration; for lowering of blood pressure on iv injection, in words: iv injection / administered intravenously
[3] = test system: rat anterior pituitary cells; experiment: In vitro stimulation of ACTH and β-endorphin secretion by cultured rat pituitary cells, potency compared with oCRF (Standard) or r/hCRF; assay type: cell-based; settings: for stimulation of secretion of ACTH and β-END-LI (testing by the general procedure), in words: general procedure of Example 1; for in vitro potency to stimulate secretion of ACTH relative to the Standard: relative to the laboratory Standard (synthetic oCRF), cultured rat pituitary cells, limits in parentheses; for in vitro biopotency, comparison in words: compared with the Standard or with a named analog
Experimental: (§1) The cyclic CRF agonists are examined for their effects on the secretion of ACTH and β-endorphin in vitro and also in vivo. […] In vivo testing is carried out using the general procedure set forth in C. Rivier et al., Science, 218, 377 (1982).

[4] = test system: ACTH and β-END-LI secretion; experiment: Secretion of ACTH and β-END-LI on administration of the peptide (in vivo testing)
Experimental: as §1

Molecule | stimulation of secretion of ACTH and β-END-LI on administration of the peptide, in words [4] | lowering of blood pressure on iv injection, in words [2] | further results
CCCC[C@H](NC(=O)[C@H](CCC(=O)O)NC(=O)[C@@H](NC(=O)[C@H](CCCC)NC(=O)[C@H](CC(N)=O)NC(=O)[C@H](CCCNC(=N)N)NC(=O)[C@H](CC(C)C)NC(=O)[C@H](CC(C)C)NC(=O)[C@H](Cc1c[nH]cn1)NC(=O)[C@@H](Cc1ccccc1)NC(=O)[C@@H](NC(=O)[C@H](CC(C)C)NC(=O)[C@H](CC(=O)O)NC(=O)[C@@H](NC(=O)[C@H](CO)NC(=O)[C@@H](NC(=O)[C@H]1CCCN1C(=O)[C@@H]1CCCN1C(C)=O)[C@@H](C)CC)[C@@H](C)CC)[C@@H](C)O)[C@@H](C)CC)C(=O)N[C@@H](C)C(=O)N[C@@H](CCCNC(=N)N)C(=O)N[C@@H](CC(N)=O)C(=O)N[C@@H](CCC(=O)O)C(=O)N[C@@H](CC(N)=O)C(=O)N[C@@H](CCC(N)=O)C(=O)N[C@@H](CCCNC(=N)N)C(=O)N[C@@H](CCC(=O)O)C(=O)N[C@H]1CCC(=O)NCCCC[C@@H](C(=O)N[C@@H](CC(N)=O)C(=O)N[C@@H](CCCNC(=N)N)C(=O)N[C@@H](CCCCN)C(=O)N[C@@H](Cc2ccc(O)cc2)C(=O)N[C@@H](CC(C)C)C(=O)N[C@@H](CC(=O)O)C(=O)N[C@@H](CCC(=O)O)C(=O)N[C@H](C(N)=O)C(C)C)NC(=O)[C@@H](Cc2c[nH]cn2)NC(=O)[C@H](C)NC1=O [Example 8 A, (cyclo 30-33)[Ac-Pro^4, D-Pro^5, D-Phe^12, Nle^18,21, Glu^30, D-His^32, Lys^33]-Carp Urotensin I(4-41)] (Ac-P[dP]ISIDLT[dF]HLLRN[Nle]IE[Nle]ARNENQREEA[dH]KNRKYLDEV-NH2; lactam 27-30) | – | – | relief of inflammation, in words [1]: relieves inflammation
CCCC[C@H](NC(=O)[C@H](CCCCN)NC(=O)[C@H](C)NC(=O)[C@H](CCCNC(=N)N)NC(=O)[C@H](Cc1c[nH]cn1)NC(=O)[C@@H](NC(=O)[C@H](CCCC)NC(=O)[C@H](CC(N)=O)NC(=O)[C@H](CCCNC(=N)N)NC(=O)[C@H](CC(C)C)NC(=O)[C@H](CCCC)NC(=O)[C@H](Cc1c[nH]cn1)NC(=O)[C@@H](Cc1ccccc1)NC(=O)[C@@H](NC(=O)[C@H](CC(C)C)NC(=O)[C@H](CC(=O)O)NC(=O)[C@@H](NC(=O)[C@H](CO)NC(C)=O)[C@@H](C)CC)[C@@H](C)O)[C@@H](C)CC)C(=O)N[C@@H](CCC(=O)O)C(=O)NCC(=O)N[C@@H](CCC(=O)O)C(=O)N[C@@H](CCCNC(=N)N)C(=O)N[C@@H](CCC(=O)O)C(=O)N[C@H]1CCC(=O)NCCCC[C@@H](C(=O)N[C@@H](CC(N)=O)C(=O)N[C@@H](CCCNC(=N)N)C(=O)N[C@@H](CC(N)=O)C(=O)N[C@@H](CC(C)C)C(=O)N[C@@H](CC(C)C)C(=O)N[C@@H](CC(=O)O)C(=O)N[C@@H](CCC(=O)O)C(=O)N[C@H](C(N)=O)C(C)C)NC(=O)[C@@H](CCC(N)=O)NC(=O)[C@H](C)NC1=O [Example 16 H, (cyclo 30-33)[Ac-Ser^7, D-Phe^12, Nle^14,18,24, Glu^30, D-Gln^32, Lys^33]-flounder urotensin(7-41)] (Ac-SIDLT[dF]H[Nle]LRN[Nle]IHRAK[Nle]EGEREEA[dQ]KNRNLLDEV-NH2; lactam 24-27) | – | – | lowering of blood pressure when administered peripherally, in words [2]: very significant lowering of blood pressure; stimulation of secretion of ACTH and β-END-LI (testing by the general procedure), in words [3]: stimulate the secretion of ACTH and β-END-LI
(cyclo 29-32)[D-Leu^11, Nle^17, Glu^29, Lys^32 ]-sauvagine [Example 3 C] | – | – | lowering of blood pressure when administered peripherally, in words [2]: very significant lowering of blood pressure; stimulation of secretion of ACTH and β-END-LI (testing by the general procedure), in words [3]: stimulates the secretion of ACTH and β-END-LI; in vitro potency to stimulate secretion of ACTH relative to the Standard [3]: about 5.73 (2.61-13.51) times
(cyclo 30-33)[Ac-Agl(Me,Ac)^7, D-Phe^12, Nle^21,38, Glu^30, Lys^33 ]-r/hCRF(7-41) [Example 19 G] | stimulates the secretion of ACTH and β-END-LI | – | in vitro potency to stimulate secretion of ACTH relative to the Standard [3]: about 3.4 times
(cyclo 30-33)[Ac-D/L-Agl(Me,For)^7, D-Phe^12, Nle^21,38, Glu^30, Lys^33 ]-r/hCRF(7-41) [Example 19 D] | stimulates the secretion of ACTH and β-END-LI | – | in vitro biopotency, comparison in words [3]: less potent than the Standard
(cyclo 30-33)[Ac-D/L-Agl^7, D-Phe^12, Nle^21,38, Glu^30, Lys^33 ]-r/hCRF(7-41) [Example 19] | stimulates the secretion of ACTH and β-END-LI | – | –
(cyclo 30-33)[Ac-D/L-MeAgl^7, D-Phe^12, Nle^21,38, Glu^30, Lys^33 ]-r/hCRF(7-41) [Example 19 B] | stimulate the secretion of ACTH and β-END-LI | – | in vitro biopotency, comparison in words [3]: less potent than the Standard
(cyclo 30-33)[Ac-MeAgl(For)^7, D-Phe^12, Nle^21,38, Glu^30, Lys^33 ]-r/hCRF(7-41) [Example 19 E] | stimulates the secretion of ACTH and β-END-LI | – | –
(cyclo 30-33)[Ac-Pro^4, D-Phe^12, CML^14, Nle^21,38, Glu^30, D-His^32, Lys^33 ]-r/hCRF(4-41) [Example 9 A] | stimulates the secretion of ACTH and β-END-LI | lowers blood pressure | –
(cyclo 30-33)[Ac-Pro^4, D-Phe^12, CML^15, Nle^21,38, Glu^30, D-His^32, Lys^33 ]-r/hCRF(4-41) [Example 9] | stimulates the secretion of ACTH and β-END-LI | lowers blood pressure | –
(cyclo 30-33)[Ac-Pro^4, D-Phe^12, CML^17, Nle^21,38, Glu^30, D-His^32, Lys^33 ]-r/hCRF (4-41) [Example 9 E] | stimulates the secretion of ACTH and β-END-LI | lowers blood pressure | –
(cyclo 30-33)[Ac-Pro^4, D-Phe^12, CML^19, Nle^21,38, Glu^30, D-His^32, Lys^33 ]-r/hCRF (4-41) [Example 9 B] | stimulates the secretion of ACTH and β-END-LI | lowers blood pressure | –
(cyclo 30-33)[Ac-Pro^4, D-Phe^12, Nle^21,38, CML^27, Glu^30, D-His^32, Lys^33 ]-r/hCRF(4-41) [Example 9 C] | stimulates the secretion of ACTH and β-END-LI | lowers blood pressure | –
(cyclo 30-33)[Ac-Pro^4, D-Phe^12, Nle^21,38, Glu^30, D-His^32, Lys^33 ]-oCRF(4-41) [Example 3] | – | – | lowering of blood pressure when administered peripherally, in words [2]: very significant lowering of blood pressure; stimulation of secretion of ACTH and β-END-LI (testing by the general procedure), in words [3]: highly stimulates the secretion of ACTH and β-END-LI
(cyclo 30-33)[Ac-Pro^4, D-Phe^12, Nle^21,38, Glu^30, D-His^32, Lys^33, CML^37 ]-r/hCRF(4-41) [Example 9 D] | stimulates the secretion of ACTH and β-END-LI | lowers blood pressure | –
(cyclo 30-33)[Ac-Pro^4, D-Pro^5, D-Phe^12, Nle^21,38, CML^27, Glu^30, D-His^32, Lys^33 ]-r/hCRF(4-41) [Example 9 C D-Pro^5 analog] | stimulates the secretion of ACTH and β-END-LI | – | in vitro potency to stimulate secretion of ACTH relative to the Standard [3]: about 7 times
(cyclo 30-33)[Ac-Pro^4,D-Phe^12, Nle^21,38, Glu^30, D-Amp^32, Lys^33 ]-r/hCRF(4-41) [Example 6 D] | stimulates the secretion of ACTH and β-END-LI | lowers blood pressure | –
(cyclo 30-33)[Ac-Ser(OMe)^7, D-Phe^12, Nle^21,38, Glu^30, Lys^33 ]-r/hCRF(7-41) [Example 19 I] | stimulates the secretion of ACTH and β-END-LI | – | –
(cyclo 30-33)[Ac-Ser^7, D-Phe^12, CML^18,27, Nle^21,38, Glu^30, Lys^33 ]-r/hCRF(7-41) [Example 20 C] | stimulates the secretion of ACTH and β-END-LI | lowers blood pressure | –
SEDPP[Nle]SIDLT[dF]H[Nle]LRN[Nle]IHRAK[Nle]EGEREEA[dQ]KNRNLLDEV-NH2 (lactam 30-33) [Example 3 H, (cyclo 30-33)[Nle^6,14,18,24, D-Phe^12, Glu^30, D-Gln^32, Lys^33]-flounder urotensin] | – | – | lowering of blood pressure when administered peripherally, in words [2]: very significant lowering of blood pressure; stimulation of secretion of ACTH and β-END-LI (testing by the general procedure), in words [3]: stimulates the secretion of ACTH and β-END-LI
SEEPP[Nle]SIDLT[dF]H[Nle]LRN[Nle]IHRAK[Nle]EGEREEA[dL]KNRNLLDEV-NH2 (lactam 30-33) [Example 3 E, (cyclo 30-33)[Nle^6,14,18,24, D-Phe^12, Glu^30, D-Leu^32, Lys^33]-maggy urotensin] | – | – | lowering of blood pressure when administered peripherally, in words [2]: very significant lowering of blood pressure; stimulation of secretion of ACTH and β-END-LI (testing by the general procedure), in words [3]: stimulates the secretion of ACTH and β-END-LI
SEEPP[Nle]SIDLT[dF]H[Nle]LRN[Nle]IHRAK[Nle]EGEREEA[dL]KNRNL[Nle]DEV-NH2 (lactam 30-33) [Example 3 G, (cyclo 30-33)[Nle^6,14,18,24,381 D-Phe^12 Glu^301 D-Leu^32, Lys^33]-sole urotensin] | – | – | lowering of blood pressure when administered peripherally, in words [2]: very significant lowering of blood pressure; stimulation of secretion of ACTH and β-END-LI (testing by the general procedure), in words [3]: stimulates the secretion of ACTH and β-END-LI
